Data published in patent US11959929B2, “Method of quantifying lysergic acid diethylamide (LSD) and 2,3-dihydro-3-hydroxy-2-oxo lysergide (O-H-LSD) in human plasma” (Universitatsspital Basel, priority 2020, dated 2024).

Experiment: Clinical application: plasma concentration-time profile of LSD and O-H-LSD after a single oral 5 μg LSD dose in healthy volunteers
Format: in vivo, human
Conditions: three healthy volunteers; for maximal plasma level (average): single oral dose of 5 μg LSD base in ethanol, LC-MS/MS, O-H-LSD measured as metabolite using 150 μl plasma
Description: To examine the application of the developed method, LSD and O-H-LSD concentrations were quantified in plasma samples of three healthy volunteers receiving a single oral dose of 5 μg. This corresponds to a very low LSD dose, used in LSD microdosing clinical trials (Holze et al., 2021a). The study was conducted in accordance with the Declaration of Helsinki and approved by the Medical Ethics Committee of the Academic Hospital of Maastricht and Maastricht University. The use of LSD in humans was authorized by the Dutch Drug Enforcement Administration. All volunteers provided written informed consent prior to study participation. To establish concentration time profiles, blood samples were collected in lithium heparin coated tubes at the following time points: 0, 0.5, 1, 1.5, 2, 3, 4, 6 after treatment. Blood samples were centrifuged, and plasma was frozen at −20° C. until analysis.
The application of the method was assessed by analyzing the PK of LSD and O-H-LSD in three healthy volunteers treated with an oral dose of 5 μg LSD base (FIG. 5). An oral dose of 5 μg LSD base in ethanol (Holze et al., 2021) was administered to three healthy volunteers. Plasma concentrations of LSD and O-H-LSD were quantified before and up to six hours post-treatment. […] Mean values and the standard deviations are illustrated.
The maximal plasma level of LSD and O-H-LSD was on average 178 pg/ml (SD: 30.6 pg/ml) and 10.4 pg/ml (SD: 2.59 pg/ml), respectively. LSD reached Tmax approximately after 1 hour post-treatment, whereas O-H-LSD peaked after 3 hours. The LSD concentrations measured after a dose of only 5 μg were approximately 7 to 18 times higher than the methods limit of quantification. Thus, the PK of LSD could straightforwardly be established also for very low so-called microdoses (Kuypers et al., 2019). In the case of O-H-LSD, a larger amount of plasma sample was required to determine the plasma concentration time profile after a dose of 5 μg. Three times more plasma was utilized (150 instead of 50 μl), which was extracted as outlined above using however three-fold more acetonitrile for the extraction. Sensitivity was increased by evaporating the extract and reconstituting the residue in a mixture of 150 μl of mobile phase A and mobile phase B (9/1 v/v). […] In future, it will also be considered to inject a larger amount of extract, which is in a first step retained and concentrated on a trapping column. In a second step, the direction of the flow is inverted and so that the sample can be loaded and eluted on the analytical column. This column switching procedure, will increase the sensitivity in the event that the sample can be retained on the trap column. Importantly, the time-consuming solvent evaporation step can thereby be avoided.

Compound | Tmax (human, 5 ug, single oral dose of 5 μg LSD base, read-out: Tmax (time of peak plasma level post-treatment)) [h] | maximal plasma level (average) [pg/mL] | Tmax (time of peak plasma level post-treatment) (single oral dose of 5 μg LSD base) [h]
CCN(CC)C(=O)[C@@H]1C=C2c3cccc4[nH]cc(c34)C[C@H]2N(C)C1 [LSD, Lysergic acid diethylamide] | ~1 | 178 | 
CCN(CC)C(=O)C1C=C2c3cccc4c3C(O)(C[C@H]2N(C)C1)C(=O)N4 (stereo partly shown) [O-H-LSD, 2,3-dihydro-3-hydroxy-2-oxo lysergide] |  | 10.4 | 3
